One assay has as its system E. coli K12 MG1655. Briefly: microbe, parasite or virus in culture. It is filed as cell-based, Escherichia coli. The note with it: Escherichia coli; Table 4; strain MG1655; MHB, 37°C, 18 h; read-out: MIC values, Carbenicillin. The method, then:
(§1) All strains used in this study are listed in Supplementary Table S1. E. coli strains WD101 and WD101ΔeptAΔarnD (WD101ΔΔ) were kindly provided by Professor M. Stephen Trent (University of Georgia, USA). E. coli strains DB wild type, DB L5, and DB L9 were kindly provided by Dr. Douglas Browning (University of Birmingham, UK). Single deletion strains for envelope mutants were obtained from the Keio-collection (Baba et al., [2006]). All strains were grown in non-cation adjusted Muller Hinton broth (MHB) (Sigma, Cat. No. 70192). BPP-PNA conjugates (Table 1) were obtained as described previously (Good et al., [2001]; Ghosal et al., [2013]; Hansen et al., [2016]).
(§2) Minimum inhibitory concentration (MIC) values were determined by broth microdilution according to standard protocols adapted to peptide-based antimicrobial compounds (Goltermann and Nielsen, [2020]). Briefly, 190 μl bacterial cell culture containing ≈10^5 cfu/ml was dispensed into a 96-well plate (Thermo Scientific, Nunc Cat. No. 260896, 96F straight w/lid) along with 10 μl PNA stock solution or antibiotic. The plate was incubated in a Tecan Genios plate reader at 37°C for 18 h, and OD was measured every 20 min at 595 nm. The MIC was determined as the lowest concentration, which inhibited visible growth (OD < 0.1) in the wells. […] Experiments were performed in triplicates as a minimum.

In assay [1] the test system is E. coli BW25113 hydN mutant (Keio collection). Nature of the assay: MIC broth microdilution. Conditions: Escherichia coli, BW25113, 18 h, read-out: MIC values, Carbenicillin. It is filed as cell-based. The method, then: as §1, §2
The test system of assay [2] is E. coli BW25113 metL mutant (Keio collection). Briefly: MIC broth microdilution. The note with it: Escherichia coli, BW25113, 18 h, read-out: MIC values, Carbenicillin. The assay is classed as cell-based. The method, then: as §1, §2
(In broth dilution the organism is exposed to a series of concentrations in liquid medium.)

Assay [3] concerns E. coli BW25113 mrcB mutant (Keio collection). Briefly: MIC broth microdilution. The note with it: Escherichia coli, BW25113, 18 h, read-out: MIC values, Carbenicillin. The assay is classed as cell-based. The method, then:
as §1, §2

Assay [4] deals with E. coli BW25113 ppiB mutant (Keio collection). Briefly: MIC broth microdilution. The assay is classed as cell-based. The note with it: Escherichia coli, BW25113, 18 h, read-out: MIC values, Carbenicillin. The method, then:
as §1, §2

The subject of assay [5] is E. coli BW25113 tolB mutant (Keio collection). Briefly: MIC broth microdilution. It is filed as cell-based. The note with it: Escherichia coli, BW25113, 18 h, read-out: MIC values, Carbenicillin. The method, then: as §1, §2
The subject of assay [6] is E. coli BW25113 tolQ mutant (Keio collection). Nature of the assay: MIC broth microdilution. The assay is classed as cell-based. The note with it: Escherichia coli, BW25113, 18 h, read-out: MIC values, Carbenicillin. The method, then:
as §1, §2

Assay [7] relates to E. coli BW25113 tolR mutant (Keio collection). Briefly: MIC broth microdilution. The assay is classed as cell-based. The note with it: Escherichia coli, BW25113, 18 h, read-out: MIC values, Carbenicillin. The method, then:
as §1, §2

Another assay has as its system E. coli BW25113. Briefly: MIC broth microdilution. The note with it: Escherichia coli; Table 4; strain BW25113; MHB, 37°C, 18 h; read-out: MIC values, Carbenicillin. The assay is classed as cell-based. The method, then: as §1, §2
For assay [8], the system named is E. coli tolB, tolQ, and tolR mutants. Briefly: MIC broth microdilution, tol mutants as a group. It is filed as cell-based, Escherichia coli. The method, then:
as §2
The Pal-Tol-system, an envelope spanning complex involved in maintaining the outer membrane integrity, has previously been implicated in general antibiotic susceptibility, and thus was also investigated.

≈ marks a conversion by molar mass, not a printed value.

As to `CC1(C)S[C@@H]2[C@H](NC(=O)C(C(=O)O)c3ccccc3)C(=O)N2[C@H]1C(=O)O` (stereo partly shown) [Carbenicillin], the MIC with E. coli K12 MG1655 was 16 µg/mL (≈ 42.3 µM); in assay [1], 16 µg/mL (≈ 42.3 µM); in [2], 16 µg/mL (≈ 42.3 µM); in [3], 4 µg/mL (≈ 10.6 µM); in assay [4], 16 µg/mL (≈ 42.3 µM); in assay [5], ≤ 2 µg/mL. Besides, the MIC in [6] was ≤ 2 µg/mL; in assay [7], 2 to 4 µg/mL (≈ 5.29 to 10.6 µM); in the assay on E. coli BW25113, 8 µg/mL (≈ 21.1 µM). Besides, the “fold increase in carbenicillin susceptibility” value in assay [8] is given as “circa 8 fold”.

The record behind these values is publication PMC9251361, “Effects of LPS Composition in Escherichia coli on Antibacterial Activity and Bacterial Uptake of Antisense Peptide-PNA Conjugates” (Frontiers in Microbiology, 2022).
